Read-outs that look alike come from different tables or passages of the source. Values belong to the molecule of their own block, whether it stands above or below them.
Key:
AD homogenates [1] = test: Competition of unlabeled ligands against [18F]-9 binding on AD homogenates; set-up: species or system human; conditions: for displacement of [18F]-9 specific binding: AD homogenates, unlabeled competitor
Protocol: Literature precedents indicate the presence of at least three different binding sites, characterized as BS1, BS2 and BS3 on the Aβ fibrils in vitro[24] and extracts from AD homogenates. […] Further, to evaluate ability of [^18F]-9 for labeling Aβ in autopsy confirmed human brain sections, autoradiography and immunohistochemical correlations were also performed.

AD homogenates [2] = conditions: read-out: binding affinity with AD homogenates; cited from earlier work
[3] = comparison values, no reference given; cited from earlier work
[4] = normal mice, cited from earlier work
Aβ plaques = Aβ plaques (Homo sapiens, UniProt P05067); test: Histological staining of human AD brain tissue sections; conditions: AD frontal lobe sections
Aβ plaques, sequence (P05067 672-711 limits assumed): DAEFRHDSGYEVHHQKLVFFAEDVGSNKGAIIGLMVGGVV
Protocol: To further assess ability of the 5 to label Aβ plaques in human brain, staining experiments were also performed with postmortem tissues from clinically-characterized AD patients[35][36] As a positive control, a highly specific anti-Aβ antibody (10D5, Eli Lilly, Indianapolis, IN) was used to ascertain the presence of Aβ plaques (Fig. 4A), using well-established procedures for assessment of Aβ plaques in postmortem brain[37]. […] Noticeably, 5 also indicated proficient and distinct labeling of plaque and leptomeningeal vessels (cerebral amyloid angiopathy; CAA) (Fig. 4B). […] This high specificity of 5 for Aβ could be attributed to presence of a benzoselenazole ring within Fluselenamyl. Overall, the ability and sensitivity of 5 to detect diffuse plaques and specificity for AD could represent an important advancement to enable PET imaging of mildly demented individuals, prior to onset of symptoms.
Scientific Reports Version of August 4, 2016
µm) were cut in the coronal plane on a freezing sliding microtome and stored at -20°C. 7,8 Tissue was stained as free-floating sections. Prior to staining, tissue sections were permeabilized with PBS-Tritron-X-100 (0.25%) for 30 minutes, and then blocked with 1% non-fat dry milk in PBS-Ttiton-X-100 for 60 minutes.
Hippocampus tissue sections of APP+/-/PS1+/- and age-matched control BL/6 (WT, SI Figure 3) were incubated with fluorescent molecule 5 (100 nM dissolved in 1% ethanol in PBS) for 60 minutes, and washed 3-times with PBS-Triton-X-100.9 Thereafter, tissue sections were incubated with mouse-anti-Aβ (mHJ3.4) 7 that was directly conjugated to Alexa 568 for 90 minutes and washed 3-times with PBS-Triton-X-100.
Tissue sections were mounted onto SuperFrost Plus slides, dried overnight at room temperature, and then sealed with Fluoromount G (Southern Biotech, Birmingham, AL). […]
other neurodegenerative diseases (SI, Figure 4A & 4B). Sections were visualized, processed, and analyzed using a Pascal confocal microscope. […]

- displacement of [18F]-9 specific binding (AD homogenates [1]): no displacement
Molecule: O=C(O)c1cc(/N=N/c2ccc(-c3ccc(/N=N/c4ccc(O)c(C(=O)O)c4)cc3)cc2)ccc1O [Chrysamine G]

Molecule: CN(C)c1ccc(-c2cn3cc(I)ccc3n2)cc1 [IMPY]
- displacement of [18F]-9 specific binding (AD homogenates [1]): significant displacement
- Ki (AD homogenates [1]; competition against [18F]-9 on AD homogenates): 6.3 nM

Molecule: [11CH3]Nc1ccc(-c2nc3ccc(O)cc3s2)cc1 [PiB]
- displacement of [18F]-9 specific binding (AD homogenates [1]): significant displacement

Molecule: CNc1ccc(/C=C/c2ccc(OCCOCCOCCF)nc2)cc1 [[^18F]-AV-45]
- Kd (AD homogenates [2]): 3.7 nM

Molecule: CNc1ccc(/C=C/c2ccc(OCCOCCOCC[18F])nc2)cc1 [[^18F]-AV-45]
- log P [3]: 2.4
- %ID/g (brain) ([4]; 2 min): 7.33 ± 1.54 %ID/g
- %ID/g (brain) ([4]; 2 h): 1.80 ± 0.07 %ID/g
- brain uptake ratio 2 min/2 h [4]: 4.07

Molecule: CNc1ccc(/C=C/c2ccc(OCCOCCOCCF)cc2)cc1 [[^18F]-Florbetaben]
- log P [3]: 3.22
- Kd (AD homogenates [2]): 16 nM
- %ID/g (brain) ([4]; 2 min): 4.77 %ID/g
- %ID/g (brain) ([4]; 4 h): 0.95 %ID/g
- brain uptake ratio 2 min/4 h [4]: 5.02

Molecule: CNc1ccc(-c2nc3ccc(O)cc3s2)cc1F [[^18F]-Flutemetamol]
- Kd (AD homogenates [2]): 6.7 nM

Molecule: Nc1ccc(C=Cc2ccc(OCCOCCOCC[18F])nc2)cc1 [desmethylated]
- brain uptake of metabolites of [18F]-AV-45 ([4]; at 2 min): 4.5 % ID/g

Molecule: thioflavin S [reference compound]
- staining of diffuse plaques (Aβ plaques): only weak staining of diffuse plaques
